{"source": "patent EP0965341A2", "about": "(priority 1998, dated 1999)", "origin": "cited, not measured here", "test_system": "Atrial Fibrillation-Induced Electrical Remodeling", "conditions": "pretreatment before AF; conclusion quoted from Circulation vol. 96, No.5, Sept. 1997", "data": [{"smiles": "CCN(CC)CCNC(=O)c1ccc(N)cc1", "note": "[procainamide]", "values": [{"measurement": "acute, AF-induced changes in atrial electrophysiological properties", "value": "not"}]}]}
